Test results taken from patent publication US20060069155A1, “Method for reducing exacerbations associated with COPD” (priority 2000, published 2006).
Entries after “also recorded” stand apart in the source; their conditions may differ.

Experiments:
[1] = developed as an antidepressant; cited from earlier work
[2] = system: COPD exacerbations in patients with COPD; test: Clinical Study C: placebo-controlled, double-blind 6-month study of Ariflo 15 mg BID in COPD patients; type: in vivo, human; settings: for Number of Patients Exacerbation-free / Estimated Percentage Exacerbation-Free (Exacerbation-free Survival Rate): 24 weeks, ITT, 15 mg BID; for Estimated Percentage Exacerbation-Free (Exacerbation-free Survival Rate): Kaplan-Meier estimate
Description: (§1) Acute COPD exacerbations, defined as worsening of COPD symptoms that required changes in treatment including antimicrobial therapy, a short course of oral corticosteroids or other bronchodilator therapy. Exacerbations were categorized to three levels: • Level 1: self-managed by the patient at home by increasing usual medication for COPD. • Level 2: requiring additional treatment prescribed by a family or primary care physician or as a result of a hospital outpatient visit including a visit to the Emergency Room. • Level 3: requiring the patient to be admitted to the hospital for treatment. Clinical trials in COPD patients were carried out to investigate the efficacy of an 15 mg immediate release tablet, BID of Ariflo. […] In each of the studies, patients with COPD entered a 4-week placebo run-in period and were then randomized to receive Ariflo 15 mg twice daily or placebo in a ratio of 2 to 1. Patients were monitored following 1, 2 and 4 weeks of treatment and subsequently at 4-week intervals. Patients were permitted to receive concomitant salbutamol (prn) and/or short acting anticholinergic therapy at a stable dose during these studies. Pulmonary function measurements were performed at each visit (with the exception of Week 1). The St. George's Respiratory Questionnaire (SGRQ) was administered at Baseline, and Weeks 12 and 24 (or at the time of withdrawal). Routine compliance, vital sign, and laboratory assessments were performed at each visit. These studies included frequent ECG assessments and extensive monitoring of patients reporting gastrointestinal adverse experiences of potential clinical concern to address concerns about possible effects of SB 207499 on both cardiovascular and gastrointestinal body systems. 12-lead ECG assessments were conducted at screening, prior to dosing at Baseline, and prior to dosing at each visit during the double-blind treatment period. In addition, 12-lead ECGs were performed 3 hours after the administration of drug on the first and last day of dosing. In a subset of patients, 24-hour Holter ECG monitoring was conducted during Run-in and at Weeks 1 and 20. Orthostatic vital signs and faecal occult blood tests were determined for all patients in order to obtain a general incidence of abnormal assessments in this patient population. Orthostatic vital signs were determined at Screening, Baseline and the end of double-blind treatment. Faecal occult blood tests were performed between Screening and Baseline and between 20 weeks and the end of double-blind treatment (24 weeks).

[3] = system: COPD exacerbations in patients with COPD; test: Clinical Study A: placebo-controlled, double-blind 6-month study of Ariflo 15 mg BID in COPD patients; type: in vivo, human; settings: for Number of Patients Exacerbation-free / Estimated Percentage Exacerbation-Free (Exacerbation-free Survival Rate): 24 weeks, ITT, 15 mg BID; for Estimated Percentage Exacerbation-Free (Exacerbation-free Survival Rate): Kaplan-Meier estimate
Description: as §1

[4] = system: COPD exacerbations in patients with COPD; test: Clinical Study B: placebo-controlled, double-blind study of Ariflo 15 mg BID in COPD patients; type: in vivo, human; settings: for Number of Patients Exacerbation-free / Estimated Percentage Exacerbation-Free (Exacerbation-free Survival Rate): 24 weeks, ITT, 15 mg BID; for Estimated Percentage Exacerbation-Free (Exacerbation-free Survival Rate): Kaplan-Meier estimate
Description: as §1, with “studies. Study B included a 2-week, randomised, double-blind, run-out phase to examine the effects of discontinuation of treatment. Patients who received Ariflo during the initial 24 week period, were randomized (1:1 ratio) to Ariflo 15 mg BID or placebo for the run-out phase; patients who received placebo during the initial 24 weeks, continued on placebo during the run-out phase.” for “studies.”

[5] = targeted for the treatment of multi-infarct dementia; 'may include'; cited from earlier work
[6] = 15 mg immediate release tablet BID

## COc1ccc(C2CNC(=O)C2)cc1OC1CCCC1 (stereo not drawn) [rolipram]
[1]
  side effects in clinical studies: psychotropic activity; also recorded: gastrointestinal effects, e.g., pyrosis, nausea and emesis

## COc1ccc([C@]2(C#N)CC[C@@H](C(=O)O)CC2)cc1OC1CCCC1 [SB207499, cis-4-cyano-4-[3-(cyclopentyloxy)-4-methoxyphenyl]cyclohexane-1-carboxylic acid]
[2]; 15 mg BID over 6 months
  affect on exacerbations: marginal
  efficacy in treating COPD: equivocal
[2]; All Exacerbations, of 474 patients
  Number of Patients Exacerbation-free: 299
[2]; All Exacerbations, placebo 56.0
  Estimated Percentage Exacerbation-Free (Exacerbation-free Survival Rate): 58.3%
[2]; Level 2 and 3 Exacerbations
  Number of Patients Exacerbation-free: 354
[2]; Level 2 and 3 Exacerbations, placebo 71.0
  Estimated Percentage Exacerbation-Free (Exacerbation-free Survival Rate): 70.9%
[3]; 15 mg IR tablet BID, P=0.008
  estimated percentages of patients exacerbation-free compared to placebo: significantly greater
[3]; [6]
  incidence of all categories of exacerbations and of more severe exacerbations (Levels 2 and 3) versus placebo: lower incidence
[3]; 15 mg immediate release tablet BID, Kaplan-Meier estimates, P=0.001
  reduction of the risk of an exacerbation requiring treatment by a physician or hospitalization: 45%
[3]; 15 mg immediate release tablet BID, Kaplan-Meier estimates, P=0.002
  reduction of the risk of having an exacerbation relative to placebo: 39%
[3]; All Exacerbations, of 431 patients
  Number of Patients Exacerbation-free: 336
[3]; All Exacerbations, placebo 62.4
  Estimated Percentage Exacerbation-Free (Exacerbation-free Survival Rate): 74.0%
[3]; Level 2 and 3 Exacerbations
  Number of Patients Exacerbation-free: 364
[3]; Level 2 and 3 Exacerbations, placebo 69.7
  Estimated Percentage Exacerbation-Free (Exacerbation-free Survival Rate): 81.7%
[4]; 15 mg IR tablet BID, P=0.004
  estimated percentages of patients exacerbation-free compared to placebo: significantly greater
[4]; [6]
  incidence of all categories of exacerbations and of more severe exacerbations (Levels 2 and 3) versus placebo: lower incidence
[4]; All Exacerbations, of 469 patients
  Number of Patients Exacerbation-free: 318
[4]; All Exacerbations, placebo 51.1
  Estimated Percentage Exacerbation-Free (Exacerbation-free Survival Rate): 63.9%
[4]; Level 2 and 3 Exacerbations
  Number of Patients Exacerbation-free: 367
[4]; Level 2 and 3 Exacerbations, placebo 64.3
  Estimated Percentage Exacerbation-Free (Exacerbation-free Survival Rate): 75.5%
[4]; over 26 weeks, P=0.004
  reduction of the risk of an exacerbation requiring treatment by a physician or hospitalization (Levels 2 and 3): 32%
[4]; over 26 weeks, P=0.005
  reduction of the risk of having an exacerbation relative to placebo: 30%

## CCCCn1c(=O)c2c(ncn2CC(C)=O)n(CCCC)c1=O [denbufylline]
[5]
  side effects: pyrosis, nausea and emesis
